# From US10301267B2, “Compounds” (AstraZeneca AB, priority 2006, dated 2019)
# Molecular target: FGFR1 active kinase (Homo sapiens, UniProt P11362)
# Experiment: FGFR Kinase assay - Caliper Echo Dosing
# Type: biochemical
# Details: FGFR1 7.2 nM, 408 uM ATP, acoustic dosing; geometric mean of n
# Protocol: FGFR Kinase Assay—Caliper Echo Dosing
# To determine inhibition of FGFR activity, kinase assays were conducted using Caliper technology.
# Kinase activity assays were performed in Greiner 384-well low volume plates, with a total reaction volume of 12 ul per well. Final concentration of FGFR1 active kinase in each reaction well was 7.2 nM. The substrate for each assay was a custom peptide with fluorescent tag (13 amino acids in length, […] with the fluorescene tag on the first K).
# Compounds were dispensed directly in to assay plates using a Labcyte Echo 550 acoustic droplet ejection unit. Each well received 120 nl of DMSO containing compound such that the final concentration of compound in the assay prior to the addition of the stop solution ranged between 30 uM and 30 pM. In addition to compounds each plate carried maximum and minimum control wells, the max wells contained 120 nl of DMSO and the min wells contained 120 nl of 10 mM staurosporine (LC Laboratories, MA 01801, USA Catalogue No. S-9300). The Enzyme (at 7.2 nM [final]) and Substrate (at 3.6 uM [final]) were added separately to the compound plates, in reaction buffer [comprising: 50 mM MOPS (Sigma, Catalogue No. M1254)—pH 6.5, 0.004% Triton (Sigma, Catalogue No. X-100), 2.4 mM DTT, 12 mM MgCl2, 408 uM ATP] resulting in a final DMSO concentration in the reaction mix of 1%.
# Assay plates were incubated at room temperature for 1.5 h, before the reaction was stopped with the addition of buffer [comprising: 100 mM HEPES—pH7.5, 0.033% Brij-35 (Sigma Catalogue No. B4184), 0.22% Caliper Coating Reagent #3 (Caliper Life Sciences Catalogue No. 760050), 88 mM EDTA, 5% DMSO]. Stopped assay plates were then read using the Caliper LabChip® LC3000 (which uses microfludics to measure a shift in mobility between fluorescent labelled peptide and the FGFR1 kinase—phosphorylated form of this peptide).
# In the assay, compounds were tested at a range of concentrations. […] Percentage inhibition at 1 uM, as expressed herein, is a calculated value based on the curve fit that was generated experimentally. From the fitted curve plot, the effect of compound at a concentration of 1 uM was calculated as a percentage inhibition. The IC50 is the concentration of compound, which inhibits FGFR1 kinase activity by 50% in the context of this assay. This value is calculated using a standard curve fitting software package Origin™.
# FGFR1 active kinase, sequence (P11362 22-822): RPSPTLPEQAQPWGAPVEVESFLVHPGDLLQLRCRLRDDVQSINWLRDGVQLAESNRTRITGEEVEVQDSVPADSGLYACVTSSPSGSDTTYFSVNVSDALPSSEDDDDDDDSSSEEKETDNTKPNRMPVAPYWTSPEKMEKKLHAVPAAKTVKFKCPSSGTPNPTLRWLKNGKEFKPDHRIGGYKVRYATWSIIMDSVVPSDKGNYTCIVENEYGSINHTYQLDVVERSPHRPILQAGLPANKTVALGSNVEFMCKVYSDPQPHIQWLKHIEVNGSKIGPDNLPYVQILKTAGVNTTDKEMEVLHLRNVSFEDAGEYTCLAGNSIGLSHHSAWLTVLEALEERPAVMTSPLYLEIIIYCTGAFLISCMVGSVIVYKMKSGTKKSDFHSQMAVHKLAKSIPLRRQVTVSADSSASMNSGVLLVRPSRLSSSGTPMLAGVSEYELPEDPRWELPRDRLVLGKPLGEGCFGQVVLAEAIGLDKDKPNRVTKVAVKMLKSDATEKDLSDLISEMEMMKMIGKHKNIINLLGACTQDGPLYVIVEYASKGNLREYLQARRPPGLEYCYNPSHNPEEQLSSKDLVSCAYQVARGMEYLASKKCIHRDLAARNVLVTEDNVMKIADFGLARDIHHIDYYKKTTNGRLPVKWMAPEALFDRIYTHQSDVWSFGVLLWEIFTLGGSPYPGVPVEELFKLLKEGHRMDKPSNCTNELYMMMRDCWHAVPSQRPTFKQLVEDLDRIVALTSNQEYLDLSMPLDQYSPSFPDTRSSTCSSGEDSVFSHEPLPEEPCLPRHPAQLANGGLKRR
row,Compound,IC50
1,"CNC1CCN(c2cnc(C(=O)Nc3cc(CCc4cc(OC)cc(OC)c4)n[nH]3)cn2)C1 (stereo not shown) [Example 161, N-[5-[2-(3,5-dimethoxyphenyl)ethyl]-2H-pyrazol-3-yl]-5-(3-methylaminopyrrolidin-1-yl)pyrazine-2-carboxamide]",3 nM
2,"COc1cc(CCc2cc(NC(=O)c3cnc(C4=CCN(C)CC4)cn3)[nH]n2)cc(OC)c1 [Example 153, N-[5-[2-(3,5-dimethoxyphenyl)ethyl]-2H-pyrazol-3-yl]-5-(1-methyl-3,6-dihydro-2H-pyridin-4-yl)pyrazine-2-carboxamide]",0.82 nM
3,"COc1cc(COc2cc(NC(=O)c3ccc(N4CCN(C)C(C)C4)cc3)[nH]n2)cc(OC)c1 (stereo not shown) [Example 101, N-[5-[(3,5-dimethoxyphenyl)methoxy]-2H-pyrazol-3-yl]-4-(3,4-dimethylpiperazin-1-yl)benzamide]",21 nM
4,"COc1cc(COc2cc(NC(=O)c3ccc(N4CCN(C)CC4)s3)[nH]n2)cc(OC)c1 [Example 107, N-[5-[(3,5-dimethoxyphenyl)methoxy]-2H-pyrazol-3-yl]-5-(4-methylpiperazin-1-yl)thiophene-2-carboxamide]",1.1 nM
5,"COc1cc(CCc2cc(NC(=O)c3cnc(N4CCN(C)C(=O)C4)nc3)[nH]n2)cc(OC)c1 [Example 150, N-[5-[2-(3,5-dimethoxyphenyl)ethyl]-2H-pyrazol-3-yl]-2-(4-methyl-3-oxopiperazin-1-yl)pyrimidine-5-carboxamide]",12 nM
6,"COc1cc(CCc2cc(NC(=O)c3cnc(N4CCN5CCCCC5C4)nc3)[nH]n2)cc(OC)c1 (stereo not shown) [Example 127, 2-(1,3,4,6,7,8,9,9a-octahydropyrido[2,1-c]pyrazin-2-yl)-N-[5-[2-(3,5-dimethoxyphenyl)ethyl]-2H-pyrazol-3-yl]pyrimidine-5-carboxamide]",2.9 nM
7,"COc1cc(CCc2cc(NC(=O)c3cnc(N4CCN5CCCC5C4)nc3)[nH]n2)cc(OC)c1 (stereo not shown) [Example 128, 2-(3,4,6,7,8,8a-hexahydro-1H-pyrrolo[2,1-c]pyrazin-2-yl)-N-[5-[2-(3,5-dimethoxyphenyl)ethyl]-2H-pyrazol-3-yl]pyrimidine-5-carboxamide]",3 nM
8,"COc1cc(CCc2cc(NC(=O)c3cnc(N4CCN[C@@H](C(C)C)C4)nc3)[nH]n2)cc(OC)c1 [Example 149, N-[5-[2-(3,5-dimethoxyphenyl)ethyl]-2H-pyrazol-3-yl]-2-[(3S)-3-propan-2-ylpiperazin-1-yl]pyrimidine-5-carboxamide]",4.4 nM
9,"COc1cc(CCc2cc(NC(=O)c3cnc(N4CCN(C)C(C)C4)nc3)[nH]n2)cc(OC)c1 (stereo not shown) [Example 135, N-[5-[2-(3,5-dimethoxyphenyl)ethyl]-2H-pyrazol-3-yl]-2-(3,4-dimethylpiperazin-1-yl)pyrimidine-5-carboxamide]",2.6 nM
10,"COc1cc(COc2cc(NC(=O)c3cnc(N4CCN5CCCC5C4)cn3)[nH]n2)cc(OC)c1 (stereo not shown) [Example 122, 5-(3,4,6,7,8,8a-Hexahydro-1H-pyrrolo[2,1-c]pyrazin-2-yl)-N-[5-[(3,5-dimethoxyphenyl)methoxy]-2H-pyrazol-3-yl]pyrazine-2-carboxamide]",1.3 nM
11,"COc1cc(COc2cc(NC(=O)c3ccc(C4CCN(C)CC4)cc3)[nH]n2)cc(OC)c1 [Example 103, N-[5-[(3,5-dimethoxyphenyl)methoxy]-2H-pyrazol-3-yl]-4-(1-methylpiperidin-4-yl)benzamide]",0.94 nM
12,"COc1cc(CCc2cc(NC(=O)c3cnc(N4CCN(C5CC5)CC4)cn3)[nH]n2)cc(OC)c1 [Example 113, 5-(4-Cyclopropylpiperazin-1-yl)-N-[5-[2-(3,5-dimethoxyphenyl)ethyl]-2H-pyrazol-3-yl]pyrazine-2-carboxamide]",2.3 nM
13,"COc1cc(COc2cc(NC(=O)c3ccc(N4CCN5CCCC5C4)s3)[nH]n2)cc(OC)c1 (stereo not shown) [Example 121, 5-(3,4,6,7,8,8a-hexahydro-1H-pyrrolo[2,1-c]pyrazin-2-yl)-N-[5-[(3,5-dimethoxyphenyl)methoxy]-2H-pyrazol-3-yl]thiophene-2-carboxamide]",0.79 nM
